# According to US20210405025A1, “IDENTIFYING COMPOUNDS FOR TREATING CANCER AND USE THEREOF” (THE UAB RESEARCH FOUNDATION, priority 2018, published 2021):
# Where a name gives a salt, the structure may show the parent alone.
# System: relapsed AML cells
# Experiment: Drug sensitivity assay, 1,536-well, 3-day culture with individual approved drugs at 10 μM, viability by alamarBlue
# Assay type: cell-based, human
# Settings: not given
# Experimental: Drug sensitivity assays were performed using a 1,536-well platform where all cells and reagents were deposited in wells using an acoustic liquid handling unit that is highly accurate for dispensing of nanoliter volumes of liquid. […] After dispensing the cells into the wells, an independent drug at a known concentration is added to each well and incubated with the cells. After three days, the percentage of live cells in each well is determined to assess the killing efficiency of each compound. […] Cell viability assays are known to those of skill in the art. See, for example, Pemovska et al., Individualized systems medicine strategy to tailor treatments for patients with chemorefractory acute myeloid leukemia. Cancer Discovery 3:1416-1429, 2013; Pabst et al., Identification of small molecules that support human leukemia stem cell activity ex vivo. Nature Methods 11:436-442, 2014; Baccelli et al., A novel approach for the identification of efficient combination therapies in primary human acute myeloid leukemia specimens. Blood Cancer Journal 7:e529, 2017. In studies described herein, the 1,536-well format was utilized, which allowed for use of four times fewer cells as well as less drug and media components due to the small assay volume of 5 microliters. […] Other compounds like CellTiter-Glo (Promega, Madison, Wis.) are equally appropriate reagents for determining cell viability.
# Conditions for the drug screening assays were as described in Pabst et al., Identification of small molecules that support human leukemia stem cell activity ex vivo, Nature Methods 11:436-442, 2014). Using this protocol, cells were cultured in Iscove's Modified Dulbecco's Medium (IMDM), 15% BIT (bovine serum albumin, insulin, transferrin; Stem Cell Technologies 09500 (Vancouver, Calif.)), 100 ng/ml SCF (Shenandoah 100-04 (Warwick, Pa.)), 50 ng/ml FLT3L (Shenandoah 100-21), 20 ng/ml IL-3 (Shenandoah 100-80), 20 ng/ml G-CSF (Shenandoah 100-72), 10^-4 M β-mercaptoethanol, gentamicin (50 μg/ml) and ciprofloxacin (10 μg/ml).
# Cells were removed from liquid nitrogen and placed in a 37° C. bath, just until thawed. For 1,536-well screens utilizing 6,000 wells about 100 million cells were thawed. The volume was doubled with pre-warmed culture media and placed on ice for about one to two minutes. The cells were brought to a final volume of about 8 to 10 mL before spinning down at 1,100 rpm for 5 min at 10° C. The pelleted cells were resuspended in 10 mL of culture media and plated in a tissue-culture treated T75 flask at a density of 1 to 2 million cells/ml. The cells were cultured overnight prior to fluorescence-activated cell sorting of viable cells on the following day.
# After cells were cultured overnight, a cell scraper was used to remove any cells that adhered to the plastic. The cells were gently pipetted up and down to break up aggregates. Then, the entire volume was transferred to a 50 mL conical tube through a 70 micron cell strainer to remove cell clumps. The T75 flask was rinsed and scraped with about 10 mL HBSS and transferred to the same 50 mL conical tube through the strainer. The harvested cells were spun down at 1,100 rpm for 5 min at 10° C. The cells were then resuspendd in about 300-500 microliters FACS buffer (HBSS+2% FBS+1× propidium iodide) and transferred to a FACS tube. The tube was placed on ice and viable cells that are forward- and side-scatter gated on viable myeloid blasts were sorted by FACS (the scatter gate should exclude small lymphocytes, large myeloid cells, and debris). After sorting the required number of viable cells, the cells were spun down at 1,100 rpm for 5 min at 10° C. and subsequently resuspended at 4,000-4,500 cells per 5 microliter volume of complete culture media with growth factors and penicillin/streptomycin.
row,Compound,#Cases >70% cell death
1,ZINC PYRITHIONE,9

# Same assay, conditions: number of relapsed AML cases out of 18 tested with >70% cell death; 10 μM, 3-day culture
row,Compound,#Cases >70% cell death
1,COc1ccc2c(c1)/C(=C/c1cnc[nH]1)C(=O)N2 [SU-9516],1
2,Cn1cnc([N+](=O)[O-])c1Sc1ncnc2nc[nH]c12 [AZATHIOPRINE],10
3,COc1cccc2c1C(=O)c1c(O)c3c(c(O)c1C2=O)C[C@@](O)(C(=O)CO)C[C@@H]3O[C@H]1C[C@H](N)[C@@H](O)[C@H](C)O1 [EPIRUBICIN],18
4,O=C(O)/C=C/c1ccc(-c2ccc(O)c(C34CC5CC(CC(C5)C3)C4)c2)cc1 [ADAROTENE],11
5,Clc1ccc(Cn2c(CN3CCCC3)nc3ccccc32)cc1 [CLEMIZOLE HYDROCHLORIDE],1
6,CCC(=O)OCC(=O)[C@@]1(OC(=O)CC)[C@@H](C)C[C@H]2[C@@H]3CCC4=CC(=O)C=C[C@]4(C)[C@@]3(Cl)[C@@H](O)C[C@@]21C [BECLOMETHASONE DIPROPIONATE],1
7,C[C@H]1[C@H](OC(=O)CCC(=O)O)O[C@@H]2O[C@@]3(C)CC[C@H]4[C@H](C)CC[C@@H]1[C@@]24OO3 [ARTESUNATE],5
8,Cc1nc2ccc(CN(C)c3ccc(C(=O)N[C@@H](CCC(=O)O)C(=O)O)s3)cc2c(=O)[nH]1 [RALTITREXED],3
9,CCCCC(CC)COC(=O)C(C#N)=C(c1ccccc1)c1ccccc1 (stereo not shown) [OCTOCRYLENE],1
10,CCNC1(C(N)=O)CCN(c2ncnc3c2nc(-c2ccccc2Cl)n3-c2ccc(Cl)cc2)CC1 [CP-945],1
11,CCC(C)(C)c1ccc(CC(C)CN2C[C@@H](C)O[C@@H](C)C2)cc1 (stereo partly shown) [AMOROLFINE],9
12,CC(=O)[C@@]1(O)CC[C@H]2[C@@H]3C[C@H](C)C4=CC(=O)C=C[C@]4(C)[C@@]3(F)[C@@H](O)C[C@@]21C [FLUOROMETHOLONE],2
13,CCN1CCN(Cc2ccc(-c3cc4c(N[C@H](C)c5ccccc5)ncnc4[nH]3)cc2)CC1 [AEE-788],13
14,CC(C)(C)CC(C)(C)c1ccc(OCCOCC[N+](C)(C)Cc2ccccc2)cc1 [BENZETHONIUM CHLORIDE],16
15,CC[C@H](C)C(=O)O[C@H]1CCC=C2C=C[C@H](C)[C@H](CC[C@@H]3C[C@@H](O)CC(=O)O3)[C@H]21 [MEVASTATIN],7
16,CC(C)OC(=O)CCC/C=C\C[C@@H]1[C@@H](CC[C@@H](O)CCc2ccccc2)[C@H](O)C[C@@H]1O [LATANOPROST],1
17,CC(C)C[C@H](NC(=O)[C@H](CCc1ccccc1)NC(=O)CN1CCOCC1)C(=O)N[C@@H](Cc1ccccc1)C(=O)N[C@@H](CC(C)C)C(=O)[C@@]1(C)CO1 [CARFILZOMIB],18
18,CCN(CC)CCOc1ccc(Cc2ccccc2)cc1 [TESMILIFENE HYDROCHLORIDE],9
19,CC(C)(C)c1cnc(CSc2cnc(NC(=O)C3CCNCC3)s2)o1 [BMS-387032],18
20,OC(CN1CCC(Cc2ccc(F)cc2)CC1)c1ccc(Cl)cc1 (stereo not shown) [ELIPRODIL],1
21,CCN[C@H]1C[C@H](C)S(=O)(=O)c2sc(S(N)(=O)=O)cc21 [DORZOLAMIDE],4
22,Clc1ccc(CO/N=C(\Cn2ccnc2)c2ccc(Cl)cc2Cl)c(Cl)c1 [OXICONAZOLE],1
23,CS(=O)(=O)CCNCc1ccc(-c2ccc3ncnc(Nc4ccc(OCc5cccc(F)c5)c(Cl)c4)c3c2)o1 [LAPATINIB],2
24,CC(=O)c1ccc2c(c1)N(CCCN(C)C)c1ccccc1S2 [ACEPROMAZINE MALEATE],2
25,CC(=O)N1CCN(c2ccc(OCC3COC(Cn4ccnc4)(c4ccc(Cl)cc4Cl)O3)cc2)CC1 (stereo not shown) [KETOCONAZOLE],5
26,CC1(C)CC(=O)c2c(C(F)(F)F)nn(-c3ccc(C(N)=O)c(N[C@H]4CC[C@H](O)CC4)c3)c2C1 [PF-04928473],18
27,CC1=C(C)C(=O)C(C(CCCCCC(=O)O)c2ccccc2)=C(C)C1=O (stereo not shown) [SERATRODAST],1

row,Compound,#Cases >70% cell death
1,CC(=O)OCC(=O)[C@@]12OC(C)(C)O[C@@H]1C[C@H]1[C@@H]3C[C@H](F)C4=CC(=O)C=C[C@]4(C)[C@@]3(F)[C@@H](O)C[C@@]12C [FLUOCINONIDE],1
2,CCc1cc(Cl)c(OC)c(C(=O)NC[C@@H]2CCCN2CC)c1O [ETICLOPRIDE HYDROCHLORIDE],1
3,Clc1ccccc1CN1CCc2sccc2C1 [TICLOPIDINE],1
4,CN(c1ncccc1CNc1nc(Nc2ccc3c(c2)CC(=O)N3)ncc1C(F)(F)F)S(C)(=O)=O [PF-562271],18
5,S=c1nc[nH]c2nc[nH]c12 [MERCAPTOPURINE],10
6,C#C[C@]1(O)CC[C@H]2[C@@H]3CCc4cc(OC5CCCC5)ccc4[C@H]3CC[C@@]21C [QUINESTROL],15
7,Nc1nc(F)nc2c1ncn2[C@@H]1O[C@H](COP(=O)(O)O)[C@@H](O)[C@@H]1O [FLUDARABINE PHOSPHATE],4
8,CN(C)c1ccc2nc3ccc(=[N+](C)C)cc-3sc2c1 [METHYLENE BLUE],18
9,CCN(CC)CCNC(=O)c1c(C)[nH]c(/C=C2\C(=O)Nc3ccc(F)cc32)c1C [SUNITINIB MALATE],15
10,C=C1C[C@H]2[C@@H]3C=C(C)C4=CC(=O)CC[C@]4(C)[C@H]3CC[C@]2(C)[C@@]1(OC(C)=O)C(C)=O [MELENGESTROL ACETATE],2
11,O=C(c1ccc(/C=C/c2n[nH]c3ccccc23)cc1)N1CCNCC1 [KW-2449],9
12,C[C@]12CC[C@@H]3c4ccc(O)cc4CC[C@H]3[C@@H]1CC[C@@H]2OC(=O)CCC1CCCC1 [ESTRADIOL CYPIONATE],2
13,CN(C)C[C@@H]1CCn2cc(c3ccccc32)C2=C(C(=O)NC2=O)c2cn(c3ccccc23)CCO1 [LY333531],12
14,CCc1ccc(CCOc2ccc(CC3SC(=O)NC3=O)cc2)nc1 (stereo not shown) [PIOGLITAZONE],8
15,COc1ccc(-c2ccc3ncc4c(c3c2)n(-c2ccc(N3CCNCC3)c(C(F)(F)F)c2)c(=O)n4C)cn1 [NVP-BGT226],8
16,CNC[C@H](O)[C@@H](O)[C@H](O)[C@H](O)CO [MEGLUMINE],1
17,O=C(Nc1ccc(-c2ccnc(Nc3ccc(N4CCOCC4)cc3)n2)cc1)C1CCCN1 (stereo not shown) [XL019],3
18,CCCCCCCCOc1ccccc1C(=O)Nc1ccc(C(=O)OCC[N+](C)(CC)CC)cc1 [OTILONIUM BROMIDE],4
19,CCCCCCc1ccc(O)cc1O.Nc1c2ccccc2nc2ccccc12 [ACRISORCIN],18
20,COc1c(C)c2c(c(O)c1C/C=C(\C)CCC(=O)OCCN1CCOCC1)C(=O)OC2 [MYCOPHENOLATE MOFETIL],5
21,CN(C)/N=N/c1[nH]cnc1C(N)=O [DACARBAZINE],14
22,CCC(COC(=O)c1cc(OC)c(OC)c(OC)c1)(c1ccccc1)N(C)C (stereo not shown) [TRIMEBUTINE],1
23,CC(=O)CC(c1ccc([N+](=O)[O-])cc1)c1c(O)c2ccccc2oc1=O (stereo not shown) [ACENOCOUMAROL],4
24,COc1cccc2c1C(=O)c1c(O)c3c(c(O)c1C2=O)C[C@@](O)(C(=O)CO)C[C@@H]3O[C@H]1C[C@H](N)[C@H](O)[C@H](C)O1 [DOXORUBICIN],18
25,O=c1[nH]c(=O)n([C@H]2C[C@H](O)[C@@H](CO)O2)cc1F [FLOXURIDINE],8
26,O=C(CCCCCCC(=O)Nc1cccnc1)NO [PYROXAMIDE],15
27,COc1cc2c(cc1O)CC[C@@H]1[C@@H]2CC[C@]2(C)[C@@H](O)CC[C@@H]12 [2-METHOXYESTRADIOL],2
